What all share (assay type): functional
The test system of experiment [1] is Huh-7. In words: Cell cycle arrest in human HuH7 cells assessed as accumulation at M phase by Hoechst staining based fluorescence assay.
In experiment [2] the test system is Huh-7. In words: Cell cycle arrest in human HuH7 cells assessed as accumulation at G1/S phase by Hoechst staining based fluorescence assay.
In a further experiment the test system is HaCaT. In words: Cell cycle arrest in human HaCaT cells assessed as accumulation at G1/S phase by Hoechst staining based fluorescence assay.
In the next experiment the test system is PC-3. In words: Cell cycle arrest in human PC3 cells assessed as accumulation at G1/S phase by Hoechst staining based fluorescence assay.
Experiment [3] concerns HCT-116. In words: Cell cycle arrest in human HCT116 cells harboring wild-type p53 assessed as accumulation at M phase at 12 uM measured after 48 hrs by Hoechst staining based fluorescence assay (reference value: 2.3 to […]).
Experiment [4] deals with HCT-116. In words: Cell cycle arrest in human HCT116 cells harboring wild-type p53 assessed as accumulation at M phase at 24 uM measured after 48 hrs by Hoechst staining based fluorescence assay (reference value: 2.3 to […]).
Experiment [5] concerns HCT-116. In words: Cell cycle arrest in human HCT116 cells harboring wild-type p53 assessed as accumulation at S phase at 12 uM measured after 48 hrs by Hoechst/BrdU staining based fluorescence assay (reference value: 68%). A general note: Uptake of a labelled nucleoside into DNA is a usual measure of proliferation.
For experiment [6], the system named is HCT-116. In words: Cell cycle arrest in human HCT116 cells harboring wild-type p53 assessed as accumulation at S phase at 24 uM measured after 48 hrs by Hoechst/BrdU staining based fluorescence assay (reference value: 68%).

SMILES strings stand for the structures. Active and inactive are the calls of the source. The rule behind the calls is not given here.

On to `COc1cc(OC)c(C(=O)/C=C/c2ccc(F)cc2)c(OC)c1`, for which, in the experiment with Huh-7 [1], the result was Active.

With `COc1cccc(/C=C/C(=O)c2c(O)cc(OC)cc2OC)c1`, the outcome with Huh-7 [2] and in the experiment on HaCaT was Active.

Regarding `COc1cc(O)c(C(=O)/C=C/c2ccccc2)c(OC)c1` [FLAVOKAWAIN B], the outcome with Huh-7 [2], in the experiment with PC-3 and in the experiment with HaCaT was Active.

As for `COc1cc(OC)c(C(=O)/C=C/c2ccc(Br)cc2)c(OC)c1`, the outcome in the experiment with Huh-7 [1] was Active.

With `COc1cccc(/C=C/C(=O)c2c(OC)cc(OC)cc2OC)c1`, the Activity with HCT-116 [3] worked out at 4.5%; with HCT-116 [4] it was 1.2%; in the experiment with HCT-116 [5], 20%; with HCT-116 [6], 0.6%. Moreover, in the experiment on Huh-7 [1], the result was Active.

Take `COc1cc(OC)c(C(=O)/C=C/c2ccccc2SC)c(OC)c1`: the result in the experiment with Huh-7 [1] was Active.

As to `COc1cc(O)c(C(=O)/C=C/c2ccccc2SC)c(OC)c1`, the result in the experiment with Huh-7 [1] was Active.

The values above are taken from ChEMBL document CHEMBL3992552, “Mechanisms of action and structure-activity relationships of cytotoxic flavokawain derivatives” (Bioorg Med Chem, 2017).
